Reference: ChEMBL document CHEMBL1817599, “Inhibition of LuxS by S-ribosylhomocysteine analogues containing a [4-aza]ribose ring” (Bioorg Med Chem, 2011)
Calls of active or inactive are those of the source. No cut-off for these calls is given here.

Key:
[1] = target: T1, S-ribosylhomocysteine lyase (Bacillus subtilis (strain 168)) (UniProt O34667); assay: Inhibition of Bacillus subtilis LuxS preincubated for 15 mins by UV-vis spectrophotometric analysis
T1 sequence (whole entry): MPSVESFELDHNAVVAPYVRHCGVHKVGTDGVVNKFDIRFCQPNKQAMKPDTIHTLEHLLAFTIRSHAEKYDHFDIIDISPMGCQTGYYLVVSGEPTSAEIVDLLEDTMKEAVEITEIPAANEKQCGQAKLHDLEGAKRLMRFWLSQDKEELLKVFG

[2] = target: T1, S-ribosylhomocysteine lyase (Bacillus subtilis (strain 168)); assay: Competitive inhibition of Bacillus subtilis LuxS preincubated for 15 mins by UV-vis spectrophotometric analysis
[3] = target: T2, S-ribosylhomocysteine lyase (Bacillus subtilis (strain 168), UniProt O34667); assay: Competitive inhibition of Bacillus subtilis LuxS preincubated for 30 mins by UV-vis spectrophotometric analysis
T2 sequence (O34667 whole entry): T1 sequence (whole entry)

[4] = target: T1, S-ribosylhomocysteine lyase (Bacillus subtilis (strain 168)); assay: as above
[5] = target: T1, S-ribosylhomocysteine lyase (Bacillus subtilis (strain 168)); assay: Inhibition of Bacillus subtilis LuxS at 20 to 50 uM by UV-vis spectrophotometric analysis; details: TDE = time-dependent effect

Row | SMILES | inhibition [1] | further results
1 | N[C@@H](CCSC[C@@H]1[C@@H](O)[C@@H](O)C(=O)N1Cc1ccccc1)C(=O)O | inactive | –
2 | N[C@@H](CCSC[C@H]1NC[C@H](O)[C@@H]1O)C(=O)O | – | inhibition [2]: Dose-dependent effect
3 | N[C@@H](CCSC[C@H]1NC(O)[C@H](O)[C@@H]1O)C(=O)O (mixture of isomers) | – | IC50 [3]: 60 µM; Ki [4]: 3.5 µM; inhibition [5]: tde
4 | CC1=N[C@H](CSCCC(N)C(=O)O)[C@@H](O)[C@H]1O (mixture of isomers) | inactive | –
5 | CCCSC[C@@H]1CCC(O)N1 (mixture of isomers) | inactive | –
6 | NC(CCSC[C@@H]1CCC(=O)N1)C(=O)O (mixture of isomers) | inactive | –
7 | N[C@@H](CCSC[C@@H]1CCC(O)N1)C(=O)O (mixture of isomers) | inactive | –
